The target of the test is Cell division control protein 42 homolog (Homo sapiens) (UniProt P60953). The experiment in a line: inhibitors of activated Cdc42 GTP binding, SAR follow-up, selectivity assay for Rab7 inhibitor project, biochemical, activated mutant, bead multiplex, flow cytometry, round 2 (AID 588624). Particulars: GST-Cdc42 act beads, Bodipy-GTP binding; for percent response of GTP binding: at 100 µM (top of the series).

Results on 23 compounds are retold here after PubChem BioAssay AID588624 (NMMLSC, 2011).

Molecules are shown by their SMILES. Activity calls are given as the source filed them.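 Rule for the calls: active = half-maximal concentration at most 10 µM with response span of at least 30% and a trustworthy curve fit; inactive = the rest.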

Sequence of Cell division control protein 42 homolog (Homo sapiens) (P60953 whole entry, looked up): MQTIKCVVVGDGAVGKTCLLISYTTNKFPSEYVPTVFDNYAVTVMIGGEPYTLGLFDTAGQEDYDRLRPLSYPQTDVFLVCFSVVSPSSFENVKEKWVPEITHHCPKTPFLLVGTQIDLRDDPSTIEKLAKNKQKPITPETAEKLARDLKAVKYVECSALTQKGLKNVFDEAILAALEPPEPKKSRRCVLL

For `CCC1(C)Cc2c(sc(NC(=S)NC(=O)c3ccccc3)c2C(=O)O)CO1` (centres undefined), the EC50 is 0.177 µM. For the compound `Cc1ccccc1C(=O)NC(=S)Nc1sc2c(c1C(=O)O)CC(C)(C)OC2`, the EC50 was 1.35 µM.

Regarding `CC1(C)Cc2c(sc(NC(=S)NC(=O)c3ccccc3F)c2C(=O)O)CO1`, the EC50 was 2.09 µM. Turning to `O=C(NC(=S)Nc1sc2c(c1C(=O)O)CCOC2)c1ccccc1`, the EC50 stood at 12.5 µM and the “percent response of GTP binding” value was “inactive”. As for `CC1(C)Cc2c(sc(NC(=S)Nc3ccccc3)c2C(=O)O)CO1`, the “percent response of GTP binding” value was “inactive”. `Cc1cccc(C(=O)NC(=S)Nc2sc3c(c2C(=O)O)CC(C)(C)OC3)c1`: the “percent response of GTP binding” value was “inactive”. As for `COc1cccc(C(=O)NC(=S)Nc2sc3c(c2C(=O)O)CC(C)(C)OC3)c1`, the EC50 is 1.31 µM. Turning to `Cc1ccc(C(=O)NC(=S)Nc2sc3c(c2C(=O)O)CC(C)(C)OC3)cc1`, the “percent response of GTP binding” value is “inactive”. As for `COc1ccc(C(=O)NC(=S)Nc2sc3c(c2C(=O)O)CC(C)(C)OC3)cc1`, the “percent response of GTP binding” value is “inactive”. Turning to `CC1(C)Cc2c(sc(NC(=S)NC(=O)C3CCCCC3)c2C(=O)O)CO1`, the EC50 was 3.13 µM.

On to `CC1(C)Cc2c(sc(NC(=O)NC(=O)c3ccccc3)c2C(=O)O)CO1`, for which the “percent response of GTP binding” value was “inactive”. On to `CC1Cc2c(sc(NC(=S)NC(=O)c3ccccc3)c2C(=O)O)CO1` (centres undefined), for which the EC50 was 7.99 µM. Turning to `COc1ccccc1C(=O)NC(=S)Nc1sc2c(c1C(=O)O)CC(C)(C)OC2`, the “percent response of GTP binding” value was “inactive”. On to `CC1(C)CCc2sc(NC(=S)NC(=O)c3ccccc3)c(C(=O)O)c2C1`, for which the “percent response of GTP binding” value was “inactive”. Consider `CC(C)(C)C1Cc2c(sc(NC(=S)NC(=O)c3ccccc3)c2C(=O)O)CO1` (centres undefined), for which the EC50 was 0.935 µM. In the case of `CC1(C)Cc2c(sc(NC(=S)NC(=O)c3cccs3)c2C(=O)O)CO1`, the “percent response of GTP binding” value is “inactive”.

On to `CC1(C)Cc2c(sc(NC(=S)NC(=O)c3ccco3)c2C(=O)O)CO1`, for which the EC50 is 0.326 µM. As to `O=C(NC(=S)Nc1sc2c(c1C(=O)O)CC1(CCCC1)OC2)c1ccccc1`, the “percent response of GTP binding” value was “inactive”. Compound `CC1(C)Cc2c(sc(NC(=S)NC(=O)c3cccc(Br)c3)c2C(=O)O)CO1` came in with a concentration for a half-maximal effect (EC50) of 40.6 µM. On to `CC1(C)Cc2c(sc(NC(=S)NC(=O)c3ccc(F)cc3)c2C(=O)O)CO1`, for which the EC50 was 0.692 µM. Take `CC1(C)Cc2c(sc(NC(=S)NC(=O)c3cccc(F)c3)c2C(=O)O)CO1`: the EC50 is 5.83 µM.

As to `CC1(C)Cc2c(sc(NC(=S)NC(=O)c3ccccc3Br)c2C(=O)O)CO1`, the EC50 came to 29.5 µM. On the same count and under the same terms, to `CC1(C)Cc2c(sc(NC(=S)NC(=O)c3ccc(Br)cc3)c2C(=O)O)CO1` belongs 32.1 µM.

As a reminder, the EC50 is the concentration at which the effect is half-maximal.
